Assay results: patent publication US9637490B2, “Antifungal 5,6-dihydro-4-[(difluoroethyl)phenyl]-4H-pyrrolo[1,2-α][1,4]benzodiazepine and 4-(difluoroethyl)phenyl-6H-pyrrolo[1,2-α][1,4]benzodiazepine derivatives” (Janssen Pharmaceutica NV, priority 2010, dated 2017)
In brackets after ≈: the same amount, converted by molar mass. Where two headings read alike, the source gives them in different places. One block for each molecule: values may come before it.

Experiments:
[1] = test system: Mucor circinelloides IHEM21105; assay: Antifungal activity in vitro (resazurin susceptibility screen), Inf. L; assay type: cell-based; conditions: 27 °C, 48 hours, resa time 17 hours
Outline: (§1)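 Compounds were tested in 2- or 4-fold serial dilution up to 64 μM against cryopreserved isolates (10^3 cfu/well) in RPMI-1640 with L-glutamine, 2% glucose and MOPS pH 7.0. Incubation ran 24 h at 37° C for yeasts to a week or more at 27° C for dermatophytes; growth was read by resazurin fluorescence (ex 550/em 590 nm).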

in vivo = assay: in vivo; set-up: species or system mice; conditions: mouse, po
Method: (§2) Three animals (mean weight 20±7 g for mice and 275±20 for Guinea pigs) were used per dose route, time point and formulation.
(§3) For the oral (PO) solution formulation, compound was dissolved in a 20% hydroxypropyl-β-cyclodextrin (HP-β-CD) solution at a final concentration of 1 mg/ml. HCl was added to facilitate dissolution. After dissolution, the pH was brought up to 3.7 with NaOH. Mannitol was added to make the solution isotonic. For the PO suspension formulation, compound was suspended in 0.5% methocel at a final concentration of 1 mg/ml. The formulations were stored at room temperature, protected from light and analysed quantitatively with LC-MS/MS on the day of preparation. Stability of the formulations was checked on the day of dosing.
(§4) The animals were dosed orally by gastric intubation at 10 ml/kg to obtain a final dose 10 mg/kg. Three dosed animals were sacrificed for blood sampling at 15 and 30 min, 1, 2, 3, 4, 6, 8 and 24 h after PO dose administration as a solution and at 30 min, 1, 2, 4, 6, 8 and 24 h after PO dose administration as a suspension.
(§5) Blood was collected by multiple sampling from a tail vein into Multivette® 600 K3E tubes (Sarstedt). Samples were placed immediately at approximately 4° C. and plasma was obtained following centrifugation at 4° C. for 10 minutes at approximately 1900×g. All samples were shielded from daylight and stored at ≦−18° C. prior to analysis.
(§6) Plasma samples were analysed for dosed compound using a qualified research LC-MS/MS method. The key analytical performance (linearity, upper and lower limit of quantification, accuracy and precision) of the method was reported together with the plasma concentrations.
(§7) A limited pharmacokinetic analysis was performed using WinNonlin™ Professional (Version 5.2.1). A non-compartmental analysis using the lin/log trapezoidal rule with lin/log interpolation was used for all data.

[2] = test system: Trichophyton mentagrophytes B70554; assay: Antifungal activity in vitro (resazurin susceptibility screen), Inf. G; assay type: cell-based; conditions: Trichophyton mentagrophytes, B70554, Trichophyton mentagrophytes B70554; 27 °C, 7 days, resa time 24 hours
Outline: as §1

[3] = test system: Candida parapsilosis B66126; assay: Antifungal activity in vitro (resazurin susceptibility screen), Inf. D; assay type: cell-based; conditions: Lodderomyces parapsilosis, B66126, Candida parapsilosis B66126; 37 °C, 24 hours, resa time 4 hours
Outline: as §1

Rhizopus oryzae IHEM5223 = assay: Antifungal activity in vitro (resazurin susceptibility screen), Inf. J; assay type: cell-based; conditions: Rhizopus arrhizus, 37 °C, 24 hours, resa time 6 hours
Outline: as §1

[4] = test system: Scedosporium prolificans IHEM21157; assay: Antifungal activity in vitro (resazurin susceptibility screen), Inf. I; assay type: cell-based; conditions: Lomentospora prolificans, 37 °C, 48 hours, resa time 17 hours
Outline: as §1

[5] = test system: Aspergillus fumigatus B42928; assay: Antifungal activity in vitro (resazurin susceptibility screen), Inf. E; assay type: cell-based; conditions: Aspergillus fumigatus, B42928, Aspergillus fumigatus B42928; 27 °C, 48 hours, resa time 17 hours
Outline: as §1

[6] = test system: Cryptococcus neoformans B66663; assay: Antifungal activity in vitro (resazurin susceptibility screen), Inf. F; assay type: cell-based; conditions: Cryptococcus neoformans, B66663, Cryptococcus neoformans B66663; 37 °C, 24 hours, resa time 4 hours
Outline: as §1

[7] = test system: Scedosporium apiospermum IHEM3817; assay: Antifungal activity in vitro (resazurin susceptibility screen), Inf. H; assay type: cell-based; conditions: Scedosporium apiospermum, IHEM3817, Scedosporium apiospermum IHEM3817; 37 °C, 48 hours, resa time 17 hours
Outline: as §1

[8] = test system: Sporothrix schenkii B62482; assay: Antifungal activity in vitro (resazurin susceptibility screen), Inf. A; assay type: cell-based; conditions: Sporothrix, B62482, Sporothrix schenkii B62482; 27 °C, 4 days, resa time 24 hours
Outline: as §1

[9] = test system: Trichophyton rubrum B68183; assay: Antifungal activity in vitro (resazurin susceptibility screen), Inf. C; assay type: cell-based; conditions: Trichophyton rubrum, B68183, Trichophyton rubrum B68183; 27 °C, 7 days, resa time 24 hours
Outline: as §1

Microsporum canis B68128 = assay: Antifungal activity in vitro (resazurin susceptibility screen), Inf. B; assay type: cell-based; conditions: Microsporum canis, B68128, Microsporum canis B68128; 27 °C, 9 days, resa time 24 hours
Outline: as §1

[10] = In vivo pharmacokinetic determinations (bioavailability) in guinea pigs; conditions: guinea pig
Method: as §2, §3, §4, §5, §6, §7

[11] = test system: Rhizomucor miehei IHEM13391; assay: Antifungal activity in vitro (resazurin susceptibility screen), Inf. K; assay type: cell-based; conditions: Rhizomucor miehei, IHEM13391, Rhizomucor miehei IHEM13391; 37 °C, 48 hours, resa time 17 hours
Outline: as §1

[12] = test system: Microsporum canis (strain B68128); assay: Test D.4.1: activity against M. canis in guinea-pigs after oral treatment for 7 consecutive days; assay type: in vivo; set-up: key to semi-quantitative lesion score (mean): lesion score 0–3.5 by severity and size of lesion; conditions: oral 10 mg/kg once daily for 7 days
Method: The animals used in the tests described below were female Guinea pigs (Duncan-Hartley, Charles River, 200 g). These animals were kept in groups of 2 or 3 in cages of 56×33×20 cm^3. Food pellets (Carfil Quality) and water were available ad libitum in addition to a small daily amount of hay. Standard husbandry conditions were adopted: room temperature: 22° C., humidity level: 60% and a day-night cycle of 12 h.
For the preparation of inoculums, Microsporum canis (strain B68128) was grown on Sabouraud Dextrose Agar (SDA) plates for at least one week (7-10 days) before infection (27° C.). On the day of infection, spores were harvested by adding 4-5 ml sterile water on the plate and suspending the infectious material with a bend Pasteur pipette. From the recollected fluid, 10 μl was added to a KOVA counting chamber for determination of the number of spores in 1 square (average of several squares). If needed, additional dilutions (10× or 100×) were prepared. The average number of spores in one square×dilution×90.000=cfu/ml. An inoculum of 1×10^7 cfu/ml was prepared in a honey-water mixture (50%-50%).
In the tests described below, semi-quantitative lesion scores were given based on different clinical parameters. Scores between 0 and 3.5 were assigned based on the severity and size of the lesion. The criteria are listed in detail in Table 6.
The dorsum of the guinea pigs was shaved and further depilated for 3 minutes with Veet® creme before scarification with a steel brush. An inoculum of 10^6 cfu in 150 μl (75 mQ+75 μl honey) was applied to the wound using a micropipette with disposable tips. The animal was kept immobilized until the inoculum had completely dried. […]
vehicle: methocel 0.5%, Tween 80® (polysorbate 80), demineralised water reference compound: itraconazole at 6.25 mg/ml test compounds: prepared at 25 mg/ml, subsequently further diluted
Oral treatment (gavage 0.16 ml/100 g once daily) was started about 2 hours before infection and continued once daily for 7 consecutive days. The animals were weighed after 3 days of treatment to adjust for the dose.
Developments of lesions were evaluated following the semi-quantitative lesion scoring system (see Table 6) on days 3, 5, 7, 10, 12, 14, 17 and 20. The results are show in Table 7 (“DPI” means days post infection). Reported values in Table 7 are mean values.

[13] = Solubility in buffer systems A-G; assay type: physicochemical; conditions: thermodynamic from solid
Method: A magnetic stirring bar was added to the mixtures. […] If the compound was dissolved, the result was reported (twice the weighed amount of compound/ml). If the compound was not dissolved, 0.5 ml of extra solvent was added to the suspension. […] If the compound was dissolved, the result was reported (weighed amount of compound/ml). If the compound was not dissolved, 1 ml of extra solvent is pipetted into the suspension. The mixtures were shaken (Edmund Buhler SM25 175 SPM) at ambient temperature overnight and inspected afterwards. If the compound was dissolved, the result was reported (half the weighed amount of compound/ml). If the compound was not dissolved, the suspension was filtered over a filter disc. An aliquot of the filtrate was diluted with an appropriate solvent (0.1 N HCl/acetonitrile 1/1) and submitted for concentration measurement (mg/ml) using a generic UPLC method.

[14] = pH 4, aqueous with cosolvent or surfactant or cyclodextrin, buffer pH 4, containing 10% (w/v) of HPBCD, read-out: Solubility, buffer system C
[15] = pH 7.4, aqueous with cosolvent or surfactant or cyclodextrin, buffer pH 7.4, containing 10% (w/v) of HPBCD, read-out: Solubility, buffer system F
[16] = pH 7.4, aqueous with cosolvent or surfactant or cyclodextrin, buffer pH 7.4, containing 20% (w/v) of HPBCD, read-out: Solubility, buffer system G

IC50 [1]: > 64.6 µM | bioavailability (in vivo): 100% | IC50 [2]: 12.9 µM | IC50 [3]: > 64600 nM | IC50 (Rhizopus oryzae IHEM5223): > 64.6 µM | IC50 [4]: 6.03 µM | IC50 [5]: 7.94 µM | IC50 [6]: 871 nM | IC50 [7]: 9.55 µM | IC50 [8]: 11 µM | IC50 [9]: 1000 nM | IC50 (Microsporum canis B68128): 3.98 µM | IC50 [11]: > 64.6 µM
SMILES: CC(F)(F)c1ccc(C2=NCc3c(Cl)cc(Cl)cc3-n3cccc32)cc1 [Compound 9, 7,9-dichloro-4-[4-(1,1-difluoroethyl)phenyl]-6H-pyrrolo[1,2-a][1,4]benzodiazepine]
Bioavailability in guinea pigs (result in words) [10]: Bioavailability in guinea pigs: not soluble

IC50 [1]: > 64.6 µM | IC50 [2]: 1.62 µM | IC50 [3]: 2450 nM | IC50 (Rhizopus oryzae IHEM5223): 8.32 µM | IC50 [4]: 0.759 µM | IC50 [5]: 0.55 µM | melting point: 115.3 °C (dec.) | IC50 [6]: 324 nM | IC50 [7]: > 64.6 µM | IC50 [8]: 5.62 µM | IC50 [9]: 457 nM | IC50 (Microsporum canis B68128): 2.63 µM | bioavailability ([10]; po, 10 mg/kg): 70% | IC50 [11]: > 64.6 µM
SMILES: CC(F)(F)c1ccc(C2=NCc3ccc(Cl)cc3-n3cccc32)cc1 [Compound 17, 9-chloro-4-[4-(1,1-difluoroethyl)phenyl]-6H-pyrrolo[1,2-a][1,4]benzodiazepine]

bioavailability (in vivo; 10 mg/kg): 11% | bioavailability ([10]; po): 2.7%
SMILES: CCc1ccc(C2=NCc3c(Cl)cccc3-n3cccc32)cc1 [Compound 22 of WO02/34752, reference compound]

SMILES: CCc1ccc(C2=NCc3ccc(Cl)cc3-n3cccc32)cc1 [Compound 23 of WO02/34752, reference compound]
bioavailability ([10]; PO 40 mg/kg, IV 2.5 mg/kg, read-out: Bioavailability in guinea pigs): 7%

bioavailability (in vivo; 10 mg/kg): 19% | bioavailability ([10]; po, 10 mg/kg): 14%
SMILES: CN(C/C=C/C#CC(C)(C)C)Cc1cccc2ccccc12 [Terbinafine, reference compound]
semi-quantitative lesion score (mean) ([12]; 3 DPI): 0 | semi-quantitative lesion score (mean) ([12]; 5 DPI): 0 | semi-quantitative lesion score (mean) ([12]; 7 DPI): 0.08 | semi-quantitative lesion score (mean) ([12]; 10 DPI): 0.33 | semi-quantitative lesion score (mean) ([12]; 12 DPI): 0.80 | semi-quantitative lesion score (mean) ([12]; 14 DPI): 0.75 | semi-quantitative lesion score (mean) ([12]; 17 DPI): 0.50 | semi-quantitative lesion score (mean) ([12]; 20 DPI): 0.42

SMILES: CCc1ccc(C2=NCc3ccc(Cl)cc3-n3cccc32)cc1 [drawing 29]
solubility ([13]; pH 4, aqueous buffer, buffer pH 4, ambient temperature, read-out: Solubility, buffer system B): < 1 µg/mL | solubility [13, 14]: 48 µg/mL (≈ 150 µM) | solubility ([13]; pH 4, aqueous with cosolvent or surfactant or cyclodextrin, buffer pH 4, containing 20% (w/v) of HPBCD, read-out: Solubility, buffer system D): 1490 µg/mL (≈ 4640 µM) | solubility ([13]; pH 7.4, aqueous buffer, buffer pH 7.4, ambient temperature, read-out: Solubility, buffer system E): < 1 µg/mL | solubility [13, 15]: 35 µg/mL (≈ 109 µM) | solubility [13, 16]: 110 µg/mL (≈ 343 µM) | solubility ([13]; simulated gastric fluid, 0.01 N HCl, ambient temperature, read-out: Solubility, buffer system A): 1880 µg/mL (≈ 5850 µM)

solubility [13, 14]: 1230 µg/mL (≈ 3440 µM) | solubility [13, 15]: 191 µg/mL (≈ 535 µM) | solubility [13, 16]: 603 µg/mL (≈ 1690 µM) | solubility ([13]; phosphate-citrate (McIlvaine) buffer pH 4, pH 4, aqueous buffer, buffer pH 4, ambient temperature, read-out: Solubility, buffer system B): 87 µg/mL (≈ 244 µM) | solubility ([13]; phosphate-citrate (McIlvaine) buffer pH 7.4, pH 7.4, aqueous buffer, buffer pH 7.4, ambient temperature, read-out: Solubility, buffer system E): < 1 µg/mL
SMILES: CC(F)(F)c1ccc(C2=NCc3ccc(Cl)cc3-n3cccc32)cc1 [drawing 30]
